Assay results published in US9365554B2, “Viral polymerase inhibitors” (BIOTA SCIENTIFIC MANAGEMENT PTY LTD, priority 2012, dated 2016).

Tests used:
[1] = Aqueous Solubility (laser nephelometry); type: physicochemical; conditions: at both pH2 and pH6.5; good solubility when >25 ug/mL
Description: Test compounds prepared in DMSO were screened in duplicate over a range of concentrations (1.6-100 ug/mL) in different aqueous media (for example a pH6.5 buffers which are relevant to the stomach and upper regions of the small intestine and therefore important when predicting the amount of drug likely to be in solution following oral administration). Test compounds were serially diluted in 100% DMSO ranging from 10-0.16 mg/mL. These titrated DMSO stocks were then further diluted 1:100 with assay buffer and added to test plates (UV Star Griener 384 well plates), maintaining the DMSO concentration at 1%.

1b (BK) NS5BΔ21 = target: T1, 1b (BK) NS5BΔ21 (Hepatitis C virus genotype 1b, UniProt P26663); assay: HCV Polymerase Inhibition Assay; type: biochemical; conditions: in each of the HCV assays tested (polymerase and replicon assays)
T1 construct: 100 nM, 1b (BK) NS5BΔ21
Description: HCV polymerase reactions were carried out using a modified method of Howe et al., Antimicrobial Agents and Chemotherapy 2004 48(12): 4813-4821. Reactions contained a final concentration of, 0.5% DMSO, 100 nM, 1b (BK) NS5BΔ21, 20 mM Tris-HCl pH 7.5, 5 mM MgCl2, 5 mM MnCl2, 3 mM DTT, 0.05% BSA, 0.2 U/μL RNasin, 10 μg/mL Poly(rC) template, GTP (at Km) and 0.05 μCi/μL ^33P-GTP in a total reaction volume of 50 μL. Compounds were tested in a three fold dilution series, for example starting from 50 μM. Reactions were initiated with the addition of GTP and terminated after 90 min with 50 μL ice cold 0.2 M EDTA. Terminated reactions were transferred to DEAE 96-well filter plates, unincorporated nucleotides washed from the filters and 50 μL scintillation fluid added prior to reading on a scintillation counter. The compound concentration that reduced ^33P-GTP incorporation by 50% (IC50) was calculated using non-linear regression.

T1 sequence (P26663 2420-2989, stated change not applied): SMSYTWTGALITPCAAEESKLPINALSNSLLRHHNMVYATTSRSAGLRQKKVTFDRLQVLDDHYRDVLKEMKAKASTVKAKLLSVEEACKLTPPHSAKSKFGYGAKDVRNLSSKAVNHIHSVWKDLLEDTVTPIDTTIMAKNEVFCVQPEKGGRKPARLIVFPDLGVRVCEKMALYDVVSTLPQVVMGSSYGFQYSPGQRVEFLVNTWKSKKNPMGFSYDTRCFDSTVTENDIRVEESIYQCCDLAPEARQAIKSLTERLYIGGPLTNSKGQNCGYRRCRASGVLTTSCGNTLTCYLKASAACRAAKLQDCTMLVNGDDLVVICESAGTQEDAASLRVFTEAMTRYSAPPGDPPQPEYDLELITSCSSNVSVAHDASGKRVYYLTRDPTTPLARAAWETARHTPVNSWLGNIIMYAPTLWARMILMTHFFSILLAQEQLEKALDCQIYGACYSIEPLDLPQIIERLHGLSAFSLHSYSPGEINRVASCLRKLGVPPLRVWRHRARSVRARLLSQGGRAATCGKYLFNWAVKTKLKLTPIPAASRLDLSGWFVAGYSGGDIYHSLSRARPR

Row | SMILES | solubility (in words) [1] | times more potent than Compound A (1b (BK) NS5BΔ21)
1 | CCN(c1cc2nn(-c3ccc(C)cn3)c(C(=O)NC)c2cc1C1CC1)S(C)(=O)=O [Compound 5, 5-cyclopropyl-6-[ethyl(methylsulfonyl)amino]-N-methyl-2-(5-methylpyridin-2-yl)-2H-indazole-3-carboxamide] | good solubility | at least 10 times
2 | CCN(c1cc2nn(-c3ccc(C)nc3)c(C(=O)NC)c2cc1C1CC1)S(C)(=O)=O [Compound A, 5-Cyclopropyl-6-[ethyl(methylsulfonyl)amino]-N-methyl-2-(6-methylpyridin-3-yl)-2H-indazole-3-carboxamide, reference compound] | very poorly soluble | 
